# Laboratory results taken from patent US20250382565A1, “INTELLIGENT SUPERVISION SYSTEM AND METHOD FOR BACTERIAL CULTURE EQUIPMENT BASED ON BIG DATA” (Suzhou Foo-Chi Biomedical Technology Co., Ltd., priority 2024, published 2025).
# Test system: Staphylococcus aureus ATCC 29213
# Test: MIC of the antibiotic against the strain to be tested by E-test
# Assay type: cell-based
# Conditions: ATCC29213, cefuroxime E-test strip, overnight culturing, CLSI standard operation
# Method: Test of the MIC of the antibiotic against the strain to be tested: The strain ATCC 29213 for test is incubated onto a culture medium plate, and a bacterial colony grows after 18 to 24 h for future use. Normal saline (a phosphate buffer solution, or the like) is prepared and is then separately put into turbidimeter tubes, each of which has a capacity of 9 mL, and sterilization treatment is carried out (at 121° C. for 15 to 30 min). A particular number of bacteria are added into the turbidimeter tubes to make bacterial suspensions, and the MacFarland turbidity is adjusted to 0.5 to 1 McFarland. According to a CLSI standard operation and use guidelines of E-test, a swab is dipped into each bacterial suspension, and is applied to a culture medium. After the swab is dried for 15 to 20 min, a cefuroxime E-test strip is applied to a surface of a bacterial moss for overnight culturing. A scale at an intersection of an edge of an inhibition zone and the strip is read. The scale is an MIC value of ATCC 29213 against the cefuroxime, which is 2 ug/mL.
smiles,measurement,value
CO/N=C(\C(=O)N[C@@H]1C(=O)N2C(C(=O)O)=C(COC(N)=O)CS[C@H]12)c1ccco1 [cefuroxime],MIC,2 µg/mL
